{
  "source": "paper PMC11726654",
  "about": "“Discovery of MDI-114215: A Potent and Selective LIMK Inhibitor To Treat Fragile X Syndrome” (Journal of Medicinal Chemistry, 2024)",
  "tested_on": "p-cofilin levels in WT and Fmr1 KO mouse brain slices",
  "experiment": "Western blot of p-cofilin in treated hippocampal brain slices",
  "conditions": "3 μM, 30 min, WT and Fmr1 KO (P7–9) brain slices",
  "description": "Hippocampal slices were obtained from neonatal (postnatal days 7–9) wild type (WT) and Fmr1 KO mice originally supplied by Jackson Laboratories. […] Mice for experimentation were killed by cervical dislocation. […] The temporal aspects of the brain were trimmed, bisected, then glued to a metal plate, such that the midline was uppermost and horizontal. […] Each individual sample was suspended in 300 μL of buffer and lysed by pipetting on ice. Samples were centrifuged to pellet at 17,000g for 30 min at 4 °C. Protein was quantified using Biorad DC protein assay (Biorad, 5000112) and read on a PheraStar plate reader (BMG Labtech) and standardized to 2 mg/mL each sample.\nSample loading buffer was added to each sample at 1:4 concentrations and boiled for 5 min prior to use. […] Membranes were then blocked in 5% BSA TBST for 1 h at rt and then placed into LIMK1, p-cofilin, cofilin and actin primary antibody solutions at 4 °C overnight. The following day, membranes were washed 3× in TBST solution before being placed in appropriate secondary antibody solutions for 1 h at room temperature. Following a final 3 washes in TBST, the membranes were developed using ClarityMax ECL substrate (Biorad, UK) at a 1:1 ratio. The ECL solution was allowed to develop on the membrane for 5 min prior to visualizing using the CHEMIDOC imaging system (Biorad, UK). […]",
  "data": [
    {"smiles": "CCn1c(=O)c(-c2ccc(Cl)cc2Cl)cc2cnc(Nc3ccc(N4CCNCC4)c(F)c3)nc21", "note": "[FRAX486]", "values": [
      {"measurement": "p-cofilin levels vs vehicle", "result": "consistent reduction"}
    ]}
  ]
}
